According to patent publication US20250059220A1, “SUBSTITUTED BENZOTHIOPHENE DERIVATIVES AND METHODS OF USE THEREOF” (Merck Sharp & Dohme LLC, priority 2021, published 2025):
Each block holds one compound with its values, some of them ahead of it.

Key:
[1] = biological target: human PTPN1 (1-435) (Homo sapiens (Human), UniProt P18031); assay: Human PTPN1 Biochemical Assay; details: DiFMUP substrate, read-out: PTP1B IC50
In short: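 Read-out is DiFMUP hydrolysis fluorescence (360 nm excitation, 460 nm emission) after 1 h at room temperature, following 30 min enzyme–compound preincubation.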

[2] = biological target: human PTPN2 (1-387) (Homo sapiens (Human), UniProt P17706); assay: Human PTPN2 Biochemical Assay; details: DiFMUP substrate
In short: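 Fluorogenic DiFMUP hydrolysis (1 h, room temperature, read ex 360/em 460 nm) after 30 min compound preincubation with PTPN2 residues 1-387, in 50 mM Tris pH 7.4, 150 mM NaCl, 0.01% Tween20, 0.5 mM DTT. Effects scaled between buffer and enzyme controls, 4-parameter fit gives EC50.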

Chain of human PTPN2 (1-387) (P17706 other isoform, or with tags, fused parts or gaps): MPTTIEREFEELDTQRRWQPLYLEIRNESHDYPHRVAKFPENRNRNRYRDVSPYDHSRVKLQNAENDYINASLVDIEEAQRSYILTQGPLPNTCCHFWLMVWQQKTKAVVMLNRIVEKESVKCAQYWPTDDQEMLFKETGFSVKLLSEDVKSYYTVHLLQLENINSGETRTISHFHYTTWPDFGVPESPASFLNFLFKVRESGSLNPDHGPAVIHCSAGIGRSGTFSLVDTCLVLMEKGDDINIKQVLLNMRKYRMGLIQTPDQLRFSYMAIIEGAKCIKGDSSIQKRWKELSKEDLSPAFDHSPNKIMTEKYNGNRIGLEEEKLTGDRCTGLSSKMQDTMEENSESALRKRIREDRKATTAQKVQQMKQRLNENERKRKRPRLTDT
Chain of human PTPN1 (1-435) (P18031 whole entry): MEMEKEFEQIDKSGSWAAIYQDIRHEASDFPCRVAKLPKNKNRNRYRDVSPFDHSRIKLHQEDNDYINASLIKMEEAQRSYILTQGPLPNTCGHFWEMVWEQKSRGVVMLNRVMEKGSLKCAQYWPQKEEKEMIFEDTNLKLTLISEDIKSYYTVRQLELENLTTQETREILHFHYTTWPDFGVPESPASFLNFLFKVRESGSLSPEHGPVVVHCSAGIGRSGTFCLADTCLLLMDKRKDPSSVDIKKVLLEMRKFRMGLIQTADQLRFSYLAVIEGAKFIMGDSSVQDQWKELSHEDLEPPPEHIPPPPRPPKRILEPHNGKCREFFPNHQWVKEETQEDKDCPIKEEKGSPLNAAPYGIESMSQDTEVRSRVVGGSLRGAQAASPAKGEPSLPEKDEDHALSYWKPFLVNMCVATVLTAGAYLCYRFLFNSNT

IC50 [1]: 37 nM | IC50 [2]: 42.1 nM
SMILES: CS(=O)(=O)CCCOc1cc(C(N)=O)cc2c(Cl)c(C(F)(F)P(=O)(O)O)sc12 [Compound 333]

IC50 [1]: 53.6 nM | IC50 [2]: 63.2 nM
SMILES: CC[C@@H]1C[C@H]1COc1cc(C(N)=O)cc2c(Br)c(C(F)(F)P(=O)(O)O)sc12 [Compound 289]

IC50 [1]: 37.1 nM | IC50 [2]: 26.4 nM
SMILES: NC(=O)c1cc(OCCCc2cncs2)c2sc(C(F)(F)P(=O)(O)O)c(Br)c2c1 [Compound 269]

IC50 [1]: 183 nM | IC50 [2]: 385 nM
SMILES: CNC(=O)c1cc(OCCC(C)(F)F)c2sc(C(F)(F)P(=O)(O)O)c(Br)c2c1 [Compound 325]

IC50 [1]: 5 nM | IC50 [2]: 5.56 nM
SMILES: O=P(O)(O)C(F)(F)c1sc2c(OCC3CC3(F)F)cc(-c3nc[nH]n3)cc2c1Br (centres unmarked) [Compound 442]

IC50 [1]: 237 nM | IC50 [2]: 294 nM
SMILES: NC(=O)c1cc(OCC(=O)Nc2c(F)cccc2F)c2sc(C(F)(F)P(=O)(O)O)c(Br)c2c1 [Compound 257]

IC50 [1]: 283 nM | IC50 [2]: 116 nM
SMILES: NC(=O)c1cc(OCc2ccc(C(F)(F)F)cc2C(F)(F)F)c2sc(C(F)(F)P(=O)(O)O)c(Br)c2c1 [Compound 340]

IC50 [1]: 17 nM | IC50 [2]: 27.3 nM
SMILES: NC(=O)c1cc(OCC2CC3(C2)CC(F)(F)C3)c2sc(C(F)(F)P(=O)(O)O)c(Br)c2c1 [Compound 276]

IC50 [1]: 18.2 nM | IC50 [2]: 14.7 nM
SMILES: NC(=O)c1cc(OCCCS(N)(=O)=O)c2sc(C(F)(F)P(=O)(O)O)c(C(F)(F)F)c2c1 [Compound 446]

IC50 [1]: 11.7 nM | IC50 [2]: 7.84 nM
SMILES: CNC(=O)c1cc(OCCCS(C)(=O)=O)c2sc(C(F)(F)P(=O)(O)O)c(C#N)c2c1 [Compound 422]

IC50 [1]: 28 nM | IC50 [2]: 50.2 nM
SMILES: CC12CC(COc3cc(C(N)=O)cc4c(Br)c(C(F)(F)P(=O)(O)O)sc34)(C1)C2 [Compound 283]

IC50 [1]: 903 nM | IC50 [2]: 1460 nM
SMILES: NC(=O)COc1cc(C(N)=O)cc2c(Br)c(C(F)(F)P(=O)(O)O)sc12 [Compound 245]

IC50 [1]: 146 nM | IC50 [2]: 132 nM
SMILES: NC(=O)c1cc(CCc2ccccc2)c2sc(C(F)(F)P(=O)(O)O)c(Br)c2c1 [Compound 313]

IC50 [1]: 7.5 nM | IC50 [2]: 6.81 nM
SMILES: CNC(=O)c1cc(OCCCS(N)(=O)=O)c2sc(C(F)(F)P(=O)(O)O)c(Br)c2c1 [Compound 320]

IC50 [1]: 15.2 nM | IC50 [2]: 13.5 nM
SMILES: O=C(NCc1cccnn1)c1cc(OCCCC2CC2)c2sc(C(F)(F)P(=O)(O)O)c(Br)c2c1 [Compound 236]

IC50 [1]: 35 nM | IC50 [2]: 47.2 nM
SMILES: NC(=O)c1cc(OCCCC(F)(F)C(F)(F)F)c2sc(C(F)(F)P(=O)(O)O)c(Br)c2c1 [Compound 272]

IC50 [1]: 36.5 nM | IC50 [2]: 23.8 nM
SMILES: NC(=O)c1cc(OCc2ccc(Cl)c(Cl)c2)c2sc(C(F)(F)P(=O)(O)O)c(Br)c2c1 [Compound 347]

IC50 [1]: 18 nM | IC50 [2]: 27.8 nM
SMILES: CC(F)(F)CCCOc1cc(C(N)=O)cc2c(Br)c(C(F)(F)P(=O)(O)O)sc12 [Compound 281]

IC50 [1]: 20 nM | IC50 [2]: 16.6 nM
SMILES: NC(=O)c1cc(OCCCS(N)(=O)=O)c2sc(C(F)(F)P(=O)(O)O)c(Br)c2c1 [Compound 235, ((3-bromo-5-carbamoyl-7-(3-sulfamoylpropoxy)benzo[b]thiophen-2-yl)difluoromethyl)phosphonic acid]

IC50 [1]: 531 nM | IC50 [2]: 86.2 nM
SMILES: O=P(O)(O)C(F)(F)c1sc2ccc(-c3cnn[nH]3)cc2c1Br [Compound 229, ((3-bromo-5-(1H-1,2,3-triazol-5-yl)benzo[b]thiophen-2-yl)difluoromethyl)phosphonic acid]

IC50 [1]: 49 nM | IC50 [2]: 78.6 nM
SMILES: CC1(C)CC(COc2cc(C(N)=O)cc3c(Br)c(C(F)(F)P(=O)(O)O)sc23)C1 [Compound 292]

IC50 [1]: 8.6 nM | IC50 [2]: 7.6 nM
SMILES: CCNC(=O)c1cc(OCCCS(C)(=O)=O)c2sc(C(F)(F)P(=O)(O)O)c(Br)c2c1 [Compound 305]

IC50 [1]: 26.9 nM | IC50 [2]: 22 nM
SMILES: COc1ccc(COc2cc(C(N)=O)cc3c(Br)c(C(F)(F)P(=O)(O)O)sc23)cc1F [Compound 349]

Further lines, the compound ahead of its results:

SMILES: COc1cccc(NCc2ccc3sc(C(F)(F)P(=O)(O)O)c(Br)c3c2)c1 [Compound 220, ((3-bromo-5-(((3-methoxyphenyl)amino)methyl)benzo[b]thiophen-2-yl)difluoromethyl)phosphonic acid]
IC50 [1]: 7140 nM | IC50 [2]: 6060 nM

SMILES: O=P(O)(O)C(F)(F)c1sc2c(OCCCC(F)(F)F)cc(-c3cn[nH]c3)cc2c1Br [Compound 404, ((3-bromo-5-(1H-pyrazol-4-yl)-7-(4,4,4-trifluorobutoxy)benzo[b]thiophen-2-yl)difluoromethyl)phosphonic acid]
IC50 [1]: 287 nM | IC50 [2]: 224 nM

SMILES: O=C(NC1CCC(F)(F)CC1)c1ccc2sc(C(F)(F)P(=O)(O)O)c(Br)c2c1 [Compound 36]
IC50 [1]: 2750 nM | IC50 [2]: 3920 nM

SMILES: COCCOc1cc(C)ccc1NC(=O)c1ccc2sc(C(F)(F)P(=O)(O)O)c(Br)c2c1 [Compound 107]
IC50 [1]: 3860 nM | IC50 [2]: 4030 nM

SMILES: O=C(Nc1ncc(C2CCC2)o1)c1ccc2sc(C(F)(F)P(=O)(O)O)c(Br)c2c1 [Compound 19]
IC50 [1]: 1500 nM | IC50 [2]: 2350 nM

SMILES: COc1ncccc1CNC(=O)c1ccc2sc(C(F)(F)P(=O)(O)O)c(Br)c2c1 [Compound 122]
IC50 [1]: 3890 nM | IC50 [2]: 5370 nM

SMILES: CN(C(=O)c1ccc2sc(C(F)(F)P(=O)(O)O)c(Br)c2c1)c1cccc(Oc2ccccc2)c1 [Compound 20]
IC50 [1]: 4440 nM | IC50 [2]: 6140 nM

SMILES: O=P(O)(O)C(F)(F)c1sc2ccc(-c3nnc[nH]3)cc2c1Br [Compound 227, ((3-bromo-5-(4H-1,2,4-triazol-3-yl)benzo[b]thiophen-2-yl)difluoromethyl)phosphonic acid]
IC50 [1]: 1000 nM | IC50 [2]: 856 nM

SMILES: COc1cccc(NC(=O)c2ccc3sc(C(F)(F)P(=O)(O)O)c(Br)c3c2)c1 [Compound 24]
IC50 [1]: 1360 nM | IC50 [2]: 2160 nM

SMILES: O=C(NCc1cccnn1)c1cc(OCCCC(F)(F)F)c2sc(C(F)(F)P(=O)(O)O)c(Br)c2c1 [Compound 10, ((3-bromo-5-((pyridazin-3-ylmethyl)carbamoyl)-7-(4,4,4-trifluorobutoxy)benzo[b]thiophen-2-yl)difluoromethyl)phosphonic acid]
IC50 [1]: 4.61 nM | IC50 [2]: 5.79 nM

SMILES: Cn1cncc1CNC(=O)c1ccc2sc(C(F)(F)P(=O)(O)O)c(Br)c2c1 [Compound 141]
IC50 [1]: 2320 nM | IC50 [2]: 3720 nM

SMILES: N#CCc1cc(OCCCC(F)(F)F)c2sc(C(F)(F)P(=O)(O)O)c(Br)c2c1 [Compound 448, ((3-bromo-5-(cyanomethyl)-7-(4,4,4-trifluorobutoxy)benzo[b]thiophen-2-yl)difluoromethyl)phosphonic acid]
IC50 [1]: 230 nM | IC50 [2]: 316 nM

SMILES: O=C(NCc1cccnn1)c1cc(Cl)c2sc(C(F)(F)P(=O)(O)O)c(Br)c2c1 [Compound 160]
IC50 [1]: 315 nM | IC50 [2]: 546 nM

SMILES: O=C(N[C@H]1CC(=O)N(C2CC2)C1)c1ccc2sc(C(F)(F)P(=O)(O)O)c(Br)c2c1 [Compound 79]
IC50 [1]: 8100 nM | IC50 [2]: 9750 nM

SMILES: CNC(=O)c1cc(OCCCC(F)(F)F)c2sc(C(F)(F)P(=O)(O)O)c(Br)c2c1 [Compound 203]
IC50 [1]: 17.2 nM | IC50 [2]: 16.4 nM

SMILES: C[C@H](NC(=O)c1ccc2sc(C(F)(F)P(=O)(O)O)c(Br)c2c1)c1cccnc1 [Compound 200]
IC50 [1]: 976 nM | IC50 [2]: 1470 nM

SMILES: O=C(NCCSC(F)(F)F)c1ccc2sc(C(F)(F)P(=O)(O)O)c(Br)c2c1 [Compound 157]
IC50 [1]: 2380 nM | IC50 [2]: 5250 nM

SMILES: O=C(Nc1ccc2sc(C(F)(F)P(=O)(O)O)c(Br)c2c1)c1ccc(F)cc1 [Compound 212, ((3-bromo-5-(4-fluorobenzamido)benzo[b]thiophen-2-yl)difluoromethyl)phosphonic acid]
IC50 [1]: 8150 nM | IC50 [2]: 9660 nM

SMILES: Cc1cnn(CCNC(=O)c2ccc3sc(C(F)(F)P(=O)(O)O)c(Br)c3c2)c1 [Compound 149]
IC50 [1]: 3130 nM | IC50 [2]: 6010 nM

SMILES: O=C(NCc1cccnc1)c1ccc2sc(C(F)(F)P(=O)(O)O)c(Br)c2c1 [Compound 11]
IC50 [1]: 2160 nM | IC50 [2]: 3050 nM

SMILES: O=C(Nc1ccccc1)c1ccc2sc(C(F)(F)P(=O)(O)O)c(C(F)(F)F)c2c1 [Compound 9, (difluoro(5-(phenylcarbamoyl)-3-(trifluoromethyl)benzo[b]thiophen-2-yl)methyl)phosphonic acid]
IC50 [1]: 2200 nM | IC50 [2]: 2130 nM

SMILES: O=C(NCc1nccc(-c2cccnc2)n1)c1ccc2sc(C(F)(F)P(=O)(O)O)c(Br)c2c1 [Compound 91]
IC50 [1]: 4980 nM | IC50 [2]: 6170 nM

SMILES: O=P(O)(O)C(F)(F)c1sc2c(OCCCC(F)(F)F)cc(-c3cnn[nH]3)cc2c1Br [Compound 258, ((3-bromo-5-(1H-1,2,3-triazol-5-yl)-7-(4,4,4-trifluorobutoxy)benzo[b]thiophen-2-yl)difluoromethyl)phosphonic acid]
IC50 [1]: 4.3 nM | IC50 [2]: 8.39 nM

SMILES: O=C(NC(c1ccc(F)cc1)C(F)F)c1ccc2sc(C(F)(F)P(=O)(O)O)c(Br)c2c1 (centres unmarked) [Compound 117]
IC50 [1]: 2140 nM | IC50 [2]: 2730 nM

SMILES: O=C(Nc1cccc(-c2cnco2)c1)c1ccc2sc(C(F)(F)P(=O)(O)O)c(Br)c2c1 [Compound 61]
IC50 [1]: 638 nM | IC50 [2]: 904 nM

SMILES: O=C(NC1CCCN(c2ccccc2)C1)c1ccc2sc(C(F)(F)P(=O)(O)O)c(Br)c2c1 (centres unmarked) [Compound 76]
IC50 [1]: 1880 nM | IC50 [2]: 958 nM

SMILES: O=C(NCc1ccc(C(F)(F)F)nc1)c1ccc2sc(C(F)(F)P(=O)(O)O)c(Br)c2c1 [Compound 121]
IC50 [1]: 2310 nM | IC50 [2]: 3100 nM

SMILES: COC1CC(NC(=O)c2ccc3sc(C(F)(F)P(=O)(O)O)c(Br)c3c2)C1 (centres unmarked) [Compound 40]
IC50 [1]: 4200 nM | IC50 [2]: 5780 nM

SMILES: COc1cccc(NC(=O)c2ccc3sc(C(F)(F)P(=O)(O)O)c(C#N)c3c2)c1 [Compound 5]
IC50 [1]: 1130 nM | IC50 [2]: 896 nM
